From patent US20240216357A1 (SICHUAN HUIYU PHARMACEUTICAL CO., LTD., priority 2021, published 2024)
Counter-ions that a name gives are not always drawn.

Key:
NCI-H1417 cells = experiment: In vitro cell proliferation detection (CellTiter-Glo, 7 days); assay type: cell-based; settings: Homo sapiens, 168 h; NCI-H1417 cells, 7 days, CellTiter-Glo; read-out: NCI-H1417 proliferation inhibition IC50
LSD1 = LSD1 (Homo sapiens (Human), UniProt O60341); experiment: LSD1 enzyme activity detection (HTRF); assay type: biochemical; settings: HTRF, H3K4me1 substrate; read-out: Inhibition of enzymatic activity of LSD1 IC50
Caco-2 permeability test = settings: human, Caco-2
[1] = biological target: voltage-gated potassium ion channel hERG (Homo sapiens (Human), UniProt Q12809); experiment: hERG inhibition test (manual patch-clamp); settings: read-out: hERG IC50; manual patch-clamp
Sequence of voltage-gated potassium ion channel hERG (Q12809 whole entry): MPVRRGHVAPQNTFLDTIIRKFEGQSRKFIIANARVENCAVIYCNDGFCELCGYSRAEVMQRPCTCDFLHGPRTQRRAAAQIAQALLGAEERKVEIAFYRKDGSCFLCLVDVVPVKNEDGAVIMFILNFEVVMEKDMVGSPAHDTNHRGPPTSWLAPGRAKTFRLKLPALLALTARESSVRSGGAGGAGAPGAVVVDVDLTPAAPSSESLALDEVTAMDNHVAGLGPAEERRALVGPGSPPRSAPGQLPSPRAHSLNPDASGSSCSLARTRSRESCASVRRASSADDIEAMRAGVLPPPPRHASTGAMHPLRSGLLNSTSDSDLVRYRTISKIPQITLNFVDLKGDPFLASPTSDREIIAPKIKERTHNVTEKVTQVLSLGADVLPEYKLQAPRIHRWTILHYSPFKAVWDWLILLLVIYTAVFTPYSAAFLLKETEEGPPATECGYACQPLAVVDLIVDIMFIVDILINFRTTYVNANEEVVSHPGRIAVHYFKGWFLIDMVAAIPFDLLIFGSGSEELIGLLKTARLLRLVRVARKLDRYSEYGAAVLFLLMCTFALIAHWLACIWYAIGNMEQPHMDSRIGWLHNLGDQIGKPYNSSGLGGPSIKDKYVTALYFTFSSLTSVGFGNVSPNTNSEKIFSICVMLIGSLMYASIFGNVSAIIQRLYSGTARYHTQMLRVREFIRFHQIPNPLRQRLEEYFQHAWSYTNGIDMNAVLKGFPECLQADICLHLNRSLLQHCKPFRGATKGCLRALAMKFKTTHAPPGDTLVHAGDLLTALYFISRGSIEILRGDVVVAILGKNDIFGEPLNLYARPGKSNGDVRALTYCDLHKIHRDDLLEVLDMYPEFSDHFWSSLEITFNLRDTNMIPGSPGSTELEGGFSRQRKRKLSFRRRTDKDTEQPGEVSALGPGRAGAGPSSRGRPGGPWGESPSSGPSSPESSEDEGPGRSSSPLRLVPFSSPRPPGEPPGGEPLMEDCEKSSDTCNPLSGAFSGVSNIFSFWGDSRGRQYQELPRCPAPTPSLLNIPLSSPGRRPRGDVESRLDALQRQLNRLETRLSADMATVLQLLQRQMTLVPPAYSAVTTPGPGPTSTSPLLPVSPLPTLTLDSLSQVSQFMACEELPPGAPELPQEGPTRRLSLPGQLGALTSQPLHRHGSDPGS
Wherever Cmax is given: test concentration or dose not given here.

**Q.** For `Cc1ccc(-c2nc(CN[C@@H]3C[C@H]3c3ccc(F)cc3)cc(C(=O)NC3CCOCC3)n2)cc1O` [Example 236], which IC50 (NCI-H1417 cells) is on record?
**A.** 2.82 nM

**Q.** And the IC50 (LSD1)?
**A.** 21.7 nM

**Q.** What about the Papp A→B at 120 min (Caco-2 permeability test) of the same molecule?
**A.** 1.44 ×10⁻⁶ cm/s

**Q.** And the Papp B→A at 120 min (Caco-2 permeability test)?
**A.** 3.99 ×10⁻⁶ cm/s

**Q.** And the efflux ratio at 120 min (Caco-2 permeability test)?
**A.** 2.76

**Q.** What about the IC50 [1] of the same molecule?
**A.** 5400 nM

**Q.** For `COc1ccc(-c2c(O)cc(N3CCC(N)CC3)nc2-c2ccc(C#N)c(F)c2)cc1F` [Example 11, 4-(6-(4-aminopiperidin-1-yl)-3-(3-fluoro-4-methoxyphenyl)-4-hydroxypyridin-2-yl)-2-fluoroben zonitrile formate], which IC50 (NCI-H1417 cells) is on record?
**A.** 13 nM

**Q.** And the IC50 (LSD1)?
**A.** 2.9 ± 0.28 nM

**Q.** And the Papp A→B at 120 min (Caco-2 permeability test)?
**A.** 3.66 ×10⁻⁶ cm/s

**Q.** What about the Papp B→A at 120 min (Caco-2 permeability test) of the same molecule?
**A.** 27.2 ×10⁻⁶ cm/s

**Q.** What about the efflux ratio at 120 min (Caco-2 permeability test) of the same molecule?
**A.** 7.42

**Q.** What about the IC50 [1] of the same molecule?
**A.** > 30000 nM

**Q.** For `COc1ccc(-c2c(-c3ccc(C#N)c(F)c3)nc(N3CCC(N)CC3)n3ccnc23)cc1O` [Example 124, 4-(5-(4-aminopiperidin-1-yl)-8-3-hydroxy-4-(methoxyphenyl)imidazolo[1,2-c]pyrimidin-7-yl)-2-fluorobenzonitrile], which IC50 (NCI-H1417 cells) is on record?
**A.** 0.163 nM

**Q.** What about the IC50 (LSD1) of the same molecule?
**A.** 0.08 ± 0.03 nM

**Q.** And the Papp A→B at 120 min (Caco-2 permeability test)?
**A.** 1.73 ×10⁻⁶ cm/s

**Q.** And the Papp B→A at 120 min (Caco-2 permeability test)?
**A.** 24.7 ×10⁻⁶ cm/s

**Q.** And the efflux ratio at 120 min (Caco-2 permeability test)?
**A.** 14.3

**Q.** What about the IC50 [1] of the same molecule?
**A.** > 30000 nM

**Q.** With `CC(C)(O)Cc1ccc(-c2c(-c3ccc(C#N)c(F)c3)nc(N3CCC(N)CC3)n3ccnc23)cc1F` [Example 134, 4-(5-(4-aminopiperidin-1-yl)-8-(3-fluoro-4-(2-hydroxy-2-methylpropyl)phenyl)imidazolo [1,2-c]pyrimidin-7-yl)-2-fluorobenzonitrile] as the molecule, how does the IC50 (NCI-H1417 cells) read?
**A.** 7.25 nM

**Q.** And the IC50 (LSD1)?
**A.** 6.1 ± 1.9 nM

**Q.** What about the IC50 [1] of the same molecule?
**A.** 18400 nM

**Q.** Which IC50 (NCI-H1417 cells) does the source give for `COc1ccc(-c2c(OC)cc(N3CCC(N)CC3)nc2-c2ccc(C#N)c(F)c2)cc1O` [Example 89, 4-(6-(4-aminopiperidin-1-yl)-3-(3-hydroxy-4-methoxyphenyl)-4-methoxypyridin-2-yl)-2-fluorobenzonitrile] here?
**A.** 1 nM

**Q.** And the IC50 (LSD1)?
**A.** 0.46 ± 0.11 nM

**Q.** And the Cl (Rat PK test (IV and PO); Male SD rats)?
**A.** 58.3 mL/min/kg

**Q.** What about the F (Rat PK test (IV and PO); Male SD rats, PO vs IV) of the same molecule?
**A.** 13.1%

**Q.** And the AUC(0-inf) (Rat PK test (IV and PO); male, SD, rat, plasma)?
**A.** 208 ng·h/mL

**Q.** And the Cmax (Rat PK test (IV and PO); male, SD, rat, plasma)?
**A.** 22.5 ng/mL

**Q.** And the half-life (Rat PK test (IV and PO); male, SD, rat, plasma)?
**A.** 6.26 h

**Q.** What about the Vd (Rat PK test (IV and PO); male, SD, rat, plasma, intravenous) of the same molecule?
**A.** 13 L/kg

**Q.** What about the IC50 [1] of the same molecule?
**A.** 13800 nM

**Q.** Which IC50 (NCI-H1417 cells) does the source give for `COc1ccc(-c2c(-c3ccc(C#N)c(F)c3)nc(N3CCC(N)CC3)n3ccnc23)cn1` [Example 121, 4-(5-(4-aminopiperidin-1-yl)-8-(6-methoxypyridin-3-yl)imidazolo [1,2-c]pyrimidin-7-yl)-2-fluorobenzonitrile] here?
**A.** 8.38 nM

**Q.** What about the IC50 (LSD1) of the same molecule?
**A.** 3.15 ± 1.03 nM

**Q.** What about the IC50 [1] of the same molecule?
**A.** 6040 nM

**Q.** With `CS(=O)(=O)N1CCN(C(=O)c2cc(CN[C@@H]3C[C@H]3c3ccc(F)cc3)nc(-c3ccc(-n4ccnn4)cc3)n2)CC1` [Example 228] as the molecule, how does the IC50 (NCI-H1417 cells) read?
**A.** 4.68 nM

**Q.** What about the IC50 (LSD1) of the same molecule?
**A.** 22.9 nM

**Q.** And the IC50 [1]?
**A.** 7210 nM

**Q.** With `COc1cc(N2CCC(N)CC2)nc(-c2ccc(C#N)c(F)c2)c1-c1cc(O)c(F)c(F)c1` [Example 92, 4-(6-(4-aminopiperidin-1-yl)-3-(3,4-difluoro-5-hydroxyphenyl)-4-methoxypyridin-2-yl)-2-fluorobenzonitrile] as the molecule, how does the IC50 (NCI-H1417 cells) read?
**A.** 8.78 nM

**Q.** What about the IC50 (LSD1) of the same molecule?
**A.** 8.2 ± 0.1 nM

**Q.** And the IC50 [1]?
**A.** 10900 nM

**Q.** With `N#Cc1ccc(-c2nc(N3CCC(N)CC3)n3ccnc3c2-c2ccc(F)c(O)c2)cc1F` [Example 137, 4-(5-(4-aminopiperidin-1-yl)-8-(4-fluoro-3-hydroxyphenyl)imidazolo[1,2-c]pyrimidin-7-yl]-2-fluorobenzonitrile] as the molecule, how does the IC50 (NCI-H1417 cells) read?
**A.** 0.553 nM

**Q.** What about the IC50 (LSD1) of the same molecule?
**A.** 0.07 ± 0.05 nM

**Q.** What about the IC50 [1] of the same molecule?
**A.** > 10000 nM

**Q.** Which IC50 (NCI-H1417 cells) does the source give for `COc1ccc(-c2c(-c3ccc(C#N)c(F)c3)nc(N3CCC(N)CC3)n3ccnc23)cc1C#N` [Example 135, 4-(5-(4-aminopiperidin-1-yl)-8-(3-cyano-4-methoxyphenyl)imidazolo[1,2-c]pyrimidin-7-yl)-2-fluorobenzonitrile] here?
**A.** 8.19 nM

**Q.** What about the IC50 (LSD1) of the same molecule?
**A.** 9.6 ± 2.7 nM

**Q.** What about the IC50 [1] of the same molecule?
**A.** 23400 nM

**Q.** With `COc1ccc(-c2c(O)cc(N3CCC(C)(N)CC3)nc2-c2ccc(C#N)c(F)c2)cc1F` [Example 50] as the molecule, how does the IC50 (NCI-H1417 cells) read?
**A.** 33.2 nM

**Q.** What about the IC50 (LSD1) of the same molecule?
**A.** 7 ± 2.1 nM

**Q.** What about the IC50 [1] of the same molecule?
**A.** 17600 nM
